Measurements published in paper PMC9012672 (Clinical cancer research : an official journal of the …, 2022).

How the values were obtained:
[1] = tested on: patients with NSCLC; test: CodeBreaK 100; assay type: in vivo
[2] = Clinical pharmacology: elimination, food effect, covariate effects on exposure; conditions: human, in vivo
[3] = CodeBreaK 100 multiple-dose PK; assay type: in vivo, human; conditions: for AUC(0-t) / Cmax / Tmax / half-life: human, plasma, po
[4] = target: CYP3A4 (Homo sapiens, UniProt P08684); test: Metabolism of sotorasib; assay type: in vitro ADME
Chain of CYP3A4 (P08684 whole entry): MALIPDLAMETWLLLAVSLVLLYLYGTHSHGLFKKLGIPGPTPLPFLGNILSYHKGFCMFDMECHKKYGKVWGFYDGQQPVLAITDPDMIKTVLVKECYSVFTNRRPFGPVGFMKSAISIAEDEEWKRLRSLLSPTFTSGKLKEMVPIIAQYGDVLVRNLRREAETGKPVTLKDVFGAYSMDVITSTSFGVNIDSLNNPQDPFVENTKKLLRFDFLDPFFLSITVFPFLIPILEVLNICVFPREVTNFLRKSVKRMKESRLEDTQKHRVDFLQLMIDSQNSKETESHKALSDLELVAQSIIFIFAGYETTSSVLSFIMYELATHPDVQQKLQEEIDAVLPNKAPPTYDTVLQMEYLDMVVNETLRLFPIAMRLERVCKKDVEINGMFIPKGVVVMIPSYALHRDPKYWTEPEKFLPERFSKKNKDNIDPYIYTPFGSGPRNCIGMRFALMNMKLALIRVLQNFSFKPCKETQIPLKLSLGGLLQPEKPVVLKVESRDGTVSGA

[5] = tested on: rats; test: 3-month rat toxicology study; assay type: in vivo
[6] = tested on: Beagle dogs; conditions: 3-month dog study; cited from earlier work
[7] = 204 patients with NSCLC, 960 mg daily

SMILES: C=CC(=O)N1CCN(c2nc(=O)n(-c3c(C)ccnc3C(C)C)c3nc(-c4c(O)cccc4F)c(F)cc23)[C@@H](C)C1 [sotorasib]
- Adverse event: abdominal pain [1, 7]: 15%
- Adverse event: constipation [1, 7]: 16%
- Adverse event: cough [1, 7]: 20%
- Adverse event: decreased appetite [1, 7]: 13%
- Adverse event: diarrhea [1, 7]: 42%
- Adverse event: dyspnea [1, 7]: 16%
- Adverse event: edema [1, 7]: 15%
- Adverse event: musculoskeletal pain [1, 7]: 35%
- Adverse event: pneumonia [1, 7]: 12%
- Adverse event: rash [1, 7]: 12%
- Adverse event: vomiting [1, 7]: 17%
- Discontinuation due to hepatotoxicity [1, 7]: 4.9%
- Permanent discontinuation due to an AE [1, 7]: 9%
- Serious AE: diarrhea [1, 7]: 2%
- Serious AE: hepatotoxicity [1, 7]: 3.4%
- Serious AE: pneumonia [1, 7]: 8%
- Serious AEs, patients [1, 7]: 50%
- Adverse event: hepatotoxicity ([1]; 204 patients with NSCLC, 960 mg daily, grouped term): 25%
- Resolution of hepatotoxicity after dose reduction or interruption ([1]; cases with dose reduction or interruption): 91%
- Patients with hepatotoxicity requiring dose reduction or interruption ([1]; of the 50 patients with an event of hepatotoxicity (n=23)): 46%
- Patients with hepatotoxicity treated with systemic corticosteroids ([1]; of the 357 patients treated with 960 mg daily): 5%
- Most common adverse reactions (≥20%) ([1]; patients with NSCLC in CodeBreaK 100): diarrhea, musculoskeletal pain, nausea, fatigue, hepatotoxicity, and cough
- Hepatotoxicity events that were severe (Grade 3 or 4) ([1]; primary safety population): 12%
- Renal toxicity events ([1]; primary safety population): rare, mild to moderate, and did not require dose reduction or discontinuation
- Interstitial lung disease/pneumonitis ([1]; primary safety population, three patients, one fatal case): 1.5%
- Food effect on administration [2]: may be taken with or without food
- Route of elimination [2]: mainly eliminated via the fecal route with minor renal excretion
- Systemic exposures (AUC0–24h and Cmax) across dose levels ([3]; daily doses ranging from 180 mg to 960 mg): similar
- AUC(0-t) ([3]; 180 mg): 31700 ng·h/mL
- Cmax ([3]; 180 mg): 6440 ng/mL
- Tmax ([3]; 180 mg): 0.73 h
- half-life ([3]; 180 mg): 5.13 h
- AUC(0-t) ([3]; 360 mg): 38900 ng·h/mL
- Cmax ([3]; 360 mg): 6310 ng/mL
- half-life ([3]; 360 mg): 5.53 h
- AUC(0-t) ([3]; 720 mg): 42100 ng·h/mL
- Cmax ([3]; 720 mg): 5450 ng/mL
- Tmax ([3]; 720 mg): 1.1 h
- half-life ([3]; 720 mg): 4.75 h
- AUC(0-t) ([3]; 960 mg): 32400 ng·h/mL
- Cmax ([3]; 960 mg): 5390 ng/mL
- Tmax ([3]; 960 mg): 1.1 h
- half-life ([3]; 960 mg): 5.07 h
- Main metabolising enzyme [4]: primarily metabolized by CYP3A4
- Most notable toxicity (renal toxicity) findings ([5]; 3-month rat study): renal tubular degeneration/necrosis and increased kidney weight with biomarkers of renal tubular injury
- Recovery of renal toxicity ([5]; after two months): Partial recovery
- Renal toxicity [6]: not identified
